{
  "source": "paper PMC2719696",
  "about": "“Kinetics and Cellular Site of Glycolipid Loading Control the Outcome of Natural Killer T Cell Activation” (Immunity, 2009)",
  "key": {"[1]": {"test_system": "murine iNKT cell TCRs", "test": "Equilibrium binding of glycolipid-loaded mCD1d tetramers to murine iNKT cells", "set-up": "species or system mouse", "settings": "tetramer staining of murine iNKT cells", "protocol": "The interactions of iNKT cell TCRs with CD1d molecules loaded with αGalCer analogs were analyzed with fluorescent murine and human CD1d tetramers. […] Equilibrium binding studies for measuring TCR avidities were carried out by incubation of human or murine iNKT cells with varying concentrations of αGalCer-analog-loaded tetramers and determining relative levels of cell-associated fluorescence ([Stanic et al., 2003; Yu et al., 2005]).\nFigure 2 Characterization of iNKT Cell TCR Interactions with αGalCer Analogs (A) Flow cytometry analysis of human and murine iNKT cells with αGalCer analog-CD1d tetramers. In the top row, murine iNKT cells from C57BL/6 splenocytes were costained with αGalCer analog-loaded or unloaded mCD1d tetramers conjugated with PE (x axis) and αGalCer-C26:0-loaded-mCD1d tetramers conjugated with APC (y axis). In the bottom row, human PBMCs were similarly costained with human glycolipid-loaded CD1d tetramers. (B) Binding avidity of glycolipid-mCD1d complexes to murine iNKT cell TCRs. Histograms at left show tetramer staining of NK1.1^+ CD3^+ T cells in C57BL/6 splenocytes with glycolipid-loaded tetramers at 20 nM. […]\n(§1) Recombinant CD1d proteins were produced and assembled into tetramers for staining as previously described ([Forestier et al., 2007]). […] All samples were analyzed with the FACSCalibur flow cytometer (BD Biosciences)."}, "[2]": {"target": "T1, hCD1d (Homo sapiens, UniProt P15813)", "T1 construct": "made in house", "T1 sequence (P15813 20-301 limits assumed)": "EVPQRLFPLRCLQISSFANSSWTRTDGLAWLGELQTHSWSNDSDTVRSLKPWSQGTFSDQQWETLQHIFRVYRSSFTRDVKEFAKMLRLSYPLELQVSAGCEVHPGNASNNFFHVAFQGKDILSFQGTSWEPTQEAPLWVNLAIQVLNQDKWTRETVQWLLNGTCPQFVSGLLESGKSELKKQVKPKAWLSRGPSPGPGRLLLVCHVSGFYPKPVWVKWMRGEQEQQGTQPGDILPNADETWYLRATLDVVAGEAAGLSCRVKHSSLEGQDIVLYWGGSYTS", "T1 sequence (P61769 21-119 partner)": "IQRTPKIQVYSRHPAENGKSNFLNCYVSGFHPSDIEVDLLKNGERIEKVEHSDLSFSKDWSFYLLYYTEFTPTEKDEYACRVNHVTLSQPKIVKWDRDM", "test": "Loading of hCD1d tetramers with or without 0.05% Triton X-100, staining of hybridoma DN3A4.1-2", "type": "binding", "source_text": "The efficient loading of CD1 molecules with lipids such as αGalCer-C26:0 is known to involve cofactors that enhance the transfer of lipids from micelles or membranes into the antigen-binding groove of the CD1 protein. The best known of these cofactors are resident intracellular lipid binding and transfer proteins including those belonging to the saposin family, GM2 activator proteins, and Niemann-Pick type C1 and C2 proteins ([Zhou et al., 2004; Sagiv et al., 2006; Yuan et al., 2007; Schrantz et al., 2007]). Most of these are known to have detergent-like activities that facilitate solubilization of lipids and their exchange between hydrophobic binding sites. […]\nFigure 5 Lack of Detergent-like Cofactor Dependence of Th2 Cell-Type Cytokine-Biasing αGalCer Analogs (A) Glycolipids were incubated for 24 hr at 37°C with murine CD1d proteins in the absence (top row) or presence (bottom row) of 0.05% Triton X-100. […] After washing, DN32.D3 iNKT hybridoma cells were added and supernatant concentrations of IL-2 were determined after an additional 14 hr of incubation. […]\nas §1"}},
  "data": [
    {"smiles": "CCCCCCCCCCCCCCCCCCCCCCCC(=O)NC(COC1OC(CO)C(O)C(O)C1O)C(O)C(O)CCCCC", "note": "(centres unmarked) [OCH]", "values": [
      {"measurement": "TCR avidity of glycolipid-mCD1d complexes", "setting": "[1]", "value": "weak binding"},
      {"measurement": "formation of hCD1d tetramers with iNKT cell-binding avidity", "setting": "[2]", "value": "failed to form hCD1d tetramers with iNKT cell-binding avidity under any conditions"}
    ]}
  ]
}
